Molecules are shown by their SMILES.

The subject of series [1] is MCF-7 (human breast adenocarcinoma) cells. As to the kind of experiment: MTT cell viability assay, MCF-7. The series is classed as cell-based. The conditions noted are these: MCF-7, MTT, 44 h + 4 h MTT; read-out: IC50 (50% inhibition of cell viability). As for the experimental part:
(§1) HeLa, A549, A549R, MCF-7 and HepG2 cells were obtained from Experimental Animal Centre of Sun Yat-Sen University (Guangzhou, China). Cells were cultured in DMEM (Dulbecco’s modified Eagle’s medium, Gibco BRL) or RPMI 1640 (Roswell Park Memorial Institute 1640, Gibco BRL) medium, containing 10% FBS (fetal bovine serum, Gibco BRL), 100 μg/mL streptomycin and 100 U/mL penicillin (Gibco BRL).
(§2) The cytotoxicity of the tested complexes towards different cell lines was determined by MTT assay. Cells were cultured in 96-well plates for 24 h. Cells were incubated with a series of concentrations of complexes for another 44 h. 20 μL MTT solution (5 mg/mL) was added into each well and incubated for another 4 h. Then culture media was removed and 150 μL DMSO was added into each well. The plate was shaken for 10 min. The absorbance at 595 nm was measured by a microplate reader.
(In general: Formazan colour is commonly taken as a measure of viable cells.)

Series [2] deals with HepG2 (human hepatocellular liver carcinoma) cells. As to the kind of experiment: MTT cell viability assay, HepG2. It counts as cell-based. The following applies: 44 h + 4 h MTT, read-out: IC50 (50% inhibition of cell viability). The procedure: as §1, §2
The nature of series [3]: Lipophilicity (log Po/w), shake-flask method with ICP-MS. The conditions noted are these: n-octanol/PBS. It counts as physicochemical. As for the experimental part: According to the Lipinski’s rule, appropriate hydrophilicity and lipophilicity are of vital importance for drugs. Excessive hydrophilicity decreases penetration ability of a drug to cross phospholipid layer membrane. On the contrary, high lipophilicity means poor water solubility, which hinders biomedical applications. The lipophilicity, as represented by the log Po/w values, was determined by the shake-flask method according to a literature procedure. The log Po/w values of these Ir(III) complexes fall between −0.81 and 2.59 (Fig. 3A).
The lipophilicity (log Po/w) was determined by the flask-shaking method and analyzed by ICP-MS. Equal amounts of PBS and n-octanol were shaken in the oscillator for 24 h. The mixture was separated to obtain oil and water phases. The mixtures were centrifuged at 3000 × g for 5 min. Equal volumes of n-octanol and PBS were added to the supernatant. The mixtures were shaken for another 24 h, and then centrifuged at 3000 × g for 5 min. The oil and water phases were separated carefully and dried under vacuum. The dried sample was dissolved by HNO3 (65%, 300 μL) and diluted to a final volume of 10 mL with Milli-Q water containing 10 ppb In. The Ir(III) concentration (Co or Cw) was measured by ICP-MS using In as the internal reference. The Po/w value corresponds to Co/Cw.

Series [4] deals with A549R (cisplatin-resistant A549) cells. As to the kind of experiment: MTT cell viability assay, A549R. The series is classed as cell-based, human. The conditions noted are these: 44 h + 4 h MTT, read-out: IC50 (50% inhibition of cell viability). The procedure:
as §1, §2

Series [5] has as its system porcine liver esterase (PLE). As to the kind of experiment: Hydrolysis by PLE in vitro (ESI-MS). The series is classed as in vitro ADME. The following applies: 20 μM, 0.6 units PLE, Tris-HCl 10 mM pH 7.4, 2 h. The procedure: Ester-modified compounds have been used as prodrugs widely. They can be hydrolysed by a variety of esterases selectively or non-selectively, to release active pharmacophores. Herein, porcine liver esterase (PLE) was used as a model to investigate the hydrolytic process of the ester bonds in Ir(III) complexes. The hydrolysis of ten Ir(III) complexes by PLE were detected by ESI-MS (Supplementary Fig. S14)[28]. Equal amounts of Ir(III) complexes (20 μM, 100 μL) were incubated with PLE (0.6 units) in Tris-HCl solution (10 mM, pH 7.4) for 2 h. […] Other complexes with ester substituents show peaks assigned to intact complexes as well as peaks corresponding to hydrolytic products.
Ir(III) complexes (20 μM) were dissolved in freshly prepared Tris-HCl (10 mM, pH 7.4) buffer. Each sample contained 100 μL Ir(III) solution and 0.6 units PLE. After the samples were incubated at 298 K for 2 h, 400 μL acetone (253 K) was added into each sample to quench the enzymatic hydrolysis. Then the samples were centrifuged at 15000 × g for 10 min. The supernatant was collected and analyzed by ESI-MS.

For series [6], the system named is A549 (human lung adenocarcinoma epithelial) cells. Description: MTT cell viability assay, A549. It counts as cell-based. The following applies: 44 h + 4 h MTT, read-out: IC50 (50% inhibition of cell viability). As for the experimental part: as §1, §2
The test system of series [7] is all the cell lines tested (A549, A549R, HeLa, HepG2, MCF-7). Description: Cytotoxicity across the cell line panel (MTT). It counts as cell-based, human. As for the experimental part: The cytotoxicity was evaluated in A549, A549R (cisplatin-resistant A549), HeLa (human cervical cancer), HepG2 (human hepatocellular liver carcinoma) and MCF-7 (human breast adenocarcinoma) cells. Cisplatin was also tested as a positive control. Generally, the anti-proliferative efficacy of Ir(III) complexes is in the following order: 4a ≈ 4b > 5a ≈ 5b > 3b > 3a > 2b > 2a > 1a ≈ 1b, which corresponds to their lipophilicity and cellular uptake efficacy (Table 1). […] Complexes with longer ester substitutions (4a, 5a, 4b and 5b) show much higher cytotoxicity than the other complexes. […] For complexes 1a and 1b, converting the carboxyl acid groups into ester groups can facilitate cellular uptake and improve their anti-proliferative effects. As carboxyl groups are usually deprotonated at physiological pH, the phenomena may be partially attributed to the alteration of molecular charge from neutral/negative to positive under physiological conditions.
The cytotoxicity of the tested complexes towards different cell lines was determined by MTT assay. Cells were cultured in 96-well plates for 24 h. Cells were incubated with a series of concentrations of complexes for another 44 h. 20 μL MTT solution (5 mg/mL) was added into each well and incubated for another 4 h. Then culture media was removed and 150 μL DMSO was added into each well. […] The absorbance at 595 nm was measured by a microplate reader.

Series [8] deals with HeLa (human cervical cancer) cells. Description: MTT cell viability assay, HeLa. It counts as cell-based. The following applies: 44 h + 4 h MTT, read-out: IC50 (50% inhibition of cell viability). As for the experimental part:
as §1, §2

Series [9] has as its system A549 cells. As to the kind of experiment: Cellular uptake efficacy by ICP-MS. The conditions noted are these: 20 μM, 1 h. It counts as cell-based, human. The procedure:
It has been reported that cellular uptake efficacy of a compound is affected by many factors, such as lipophilicity, polarization and surface area[32]. As iridium is an exogenous element, its cellular uptake level can be quantitatively recorded by ICP-MS (inductively coupled plasma-mass spectrometry)[15]. A549 (human lung adenocarcinoma epithelial) cells were incubated with Ir(III) complexes (20 μM) for 1 h and analysed. Cell penetration capability of these complexes is correlated with the length of ester group and lipophilicity (Fig. 3B).
A549 cells were cultured in 60 mm dishes and incubated for 24 h. The medium was removed and replaced with medium-DMSO (99:1, v/v) containing Ir(III) complexes (20 μM). After 1 h incubation, cells were trypsined and collected in PBS. After counted by hemocytometer, cells were digested with HNO3 (65%, 300 μL) at room temperature for 24 h. The solution was diluted to a final volume of 10 mL with Milli-Q water containing 10 ppb In. The iridium content was measured by ICP-MS using In as the internal reference.

Series [10] deals with A549 cells. Description: Inhibition of autophagy by 3-MA, MTT cell viability. The series is classed as cell-based, human. The conditions noted are these: A549, 3-MA pre-treatment 1 h, 24 h. The procedure: Autophagy is a complicated biological process, which can play either pro-survival or pro-death roles in anticancer therapy. 3-methyladenine (3-MA), a specific class III PI3K inhibitor that can block autophagosome formation, was used to investigate the relationship between autophagy and anti-proliferative activities of 4a and 4b[51]. The anti-proliferative effects are diminished by pre-treatment of A549 cells with 3-MA (5 mM) for 1 h (Fig. 8F). Cell viabilities increase by approximately 1.09−fold and 1.13−fold for 4a (2 μM, 24 h) and 4b (2 μM, 24 h), respectively.
Cells were cultured in a 96-well plate and grown to confluence. Cells were pre-treated with or without 3-MA (5 mM) for 1 h, then incubated with the complexes at the indicated concentrations for 24 h. Cell viability was measured by MTT assay.

For the compound `O=C([O-])c1cc[n+]2c(c1)-c1cc(C(=O)O)cc[n+]1[Ir-3]213([c]2cc(F)cc(F)c2-c2cccc[n+]21)[c]1cc(F)cc(F)c1-c1cccc[n+]13` [Complex 1b, Ir(dfppy)2(Hdcbpy)], the IC50 in [1], in [2], in series [4], in series [6] and in series [8] was more than 100 µM throughout. Also, the “Lipophilicity (log Po/w)” value in series [3] is listed as -0.49. In series [5], the “hydrolysis of ester bonds by PLE (ESI-MS peaks)” value was “remain unchanged”. Besides, in [7], the “cytotoxicity against all the cell lines tested” value was “inactive”. In addition, in series [9], the “cellular uptake level / penetration ability” value is reported as “lowest penetration ability”.

With `O=C([O-])c1cc[n+]2c(c1)-c1cc(C(=O)O)cc[n+]1[Ir-3]213([c]2ccccc2-c2cccc[n+]21)[c]1ccccc1-c1cccc[n+]13` [Complex 1a, Ir(ppy)2(Hdcbpy)], the half-maximal inhibitory concentration (IC50) in [1], in series [2], in series [4], in series [6] and in series [8] was more than 100 µM each time. Also, the “Lipophilicity (log Po/w)” value in [3] was -0.81. In addition, the “hydrolysis of ester bonds by PLE (ESI-MS peaks)” value in [5] is on record as “remain unchanged”. For the same compound, the “cytotoxicity against all the cell lines tested” value in series [7] was “inactive”. The “cellular uptake level / penetration ability” value in series [9] was “lowest penetration ability”.

`N.N.[Cl][Pt][Cl]` [cisplatin, reference compound]: the IC50 in series [1] came to 16.8 ± 1.5 µM; in series [2], 15.8 ± 1.2 µM; in [4], 79.4 ± 6.1 µM; in series [6] it was 23.7 ± 1 µM; in series [8] it was 25.1 ± 2.2 µM. In addition, the “effect of 3-MA pre-treatment on induced cell death” value in series [10] was “enhance cell death”.

By IC50 is commonly meant the point on the concentration scale where inhibition reaches its midpoint.

For the origin of these results see publication PMC5154195, “Ester-Modified Cyclometalated Iridium(III) Complexes as Mitochondria-Targeting Anticancer Agents” (Scientific Reports, 2016).
